Laboratory results taken from patent publication US20210380994A1, “LACTOCOCCUS LACTIS EXPRESSION SYSTEM FOR DELIVERING PROTEINS EFFICACIOUS FOR THE TREATMENT OF EPITHELIAL BARRIER FUNCTION DISORDERS” (Second Genome, Inc., priority 2018, published 2021).

Key:
[1] = system: HCT8 enterocyte and HT29-MTX goblet cell lines; assay: Oris Cell Migration assay (epithelial cell wound healing); format: cell-based, human; details: 48 hours; SG-11 1 μg/ml, EGF 30 ng/ml, staurosporine 100 nM; FIG. 2
From the text: The 96 well Oris Cell Migration assay containing plugs preventing cell attachment in the center of each well was used according to the manufacturer's instructions (Platypus Technologies. Madison, Wis.).
The migration assay plates were warmed to room temperature prior to use and plugs were removed rom 100% confluence wells prior to cell addition. The HCT8 enterocyte and HT29-MTX goblet cell lines were used at a 9:1 ratio with a total of 5×10^4 total cells added per well (4.5×10^4 HCT8 cells and 0.5×10^4 HT29-MTX cells). Cells were incubated at 37° C.+5% CO2 for 24 hours. Plugs were then removed from all control and sample wells. Control wells included cells treated with the diluent vehicle as the blank, 30 ng/ml epidermal growth factor (EGF) as the positive control, and 100 nM staurosporine as the negative control, all diluted in cRPMI. Sample wells contained SG-11 protein (SEQ ID NO:9) at a concentration of 1 μg/ml diluted in eRPMI. 100% and 0% wells were cultured in cRPMI. […] The green fluorescent viability dye Calcenin AM was added to all wells at a concentration of 0.5 μg/min PBS containing 0.9 mM CaCl2 and 0.5 mM MgCl2, incubated for 30 min at 37° C.+5% CO2, the dye was removed and cells were washed in PBS containing 0.9 mM CaCl2 and 0.5 mM MgCl2, and fluorescence was measured. […] Samples were normalized between 100% and 0% samples and values expressed as a percent growth.

[2] = system: human colonic epithelial cells (HCT8 enterocytes and HT29-MTX goblet cells); assay: trans-epithelial electrical resistance (TEER) assay, epithelial/monocyte co-culture disrupted by heat killed E. coli; format: cell-based; details: staurosporine 100 nM, control compound
Protocol: Assays were performed as described below in trans-well plates where co-cultures of multiple cell types were performed utilizing a permeable membrane to separate cells. In the apical (top) chamber, human colonic epithelial cells, consisting of a mixture of enterocytes and goblet cells, were cultured until cells obtained tight junction formation and barrier function capacity as assessed by measurement of trans-epithelial electrical resistance (TEER). In the basolateral chamber, monocytes were cultured separately. Epithelial […] were primed with inflammatory cytokines. The assays measured the effect of a therapeutic protein, e.g., SG-11, on epithelial barrier function, muc2 gene expression, and production of cytokines.
Cell culture. The HCT8 human enterocyte cell line (ATCC Cat. No. CCL-244) was maintained in RPMI-1640 medium supplemented with 10% fetal bovine seam, 100 IU/ml penicillin, 100 ? g/ml streptomycin, 10 ? g/ml gentamicin and 0.25 μg/ml amphotericin (cRPMI). […]
Epithelial cell culture. […] Epithelial cells were trypsinized from culture flasks and viable cells determined by trypan blue counting. […]
Co-culture assay. […] TEER readings were measured after the IFN-© treatment and were used as the pre-treatment TEER value. […]

[3] = system: C57BL/6 mice treated with DSS; assay: concurrent (prophylactic) DSS model of inflammatory bowel disease (Examples 4, 13A); format: in vivo; details: Example 4; 50 nmoles/kg i.p. b.i.d.
Protocol: On day six, mice were fasted for four hours and then orally gavaged with 600 mg/kg 4KDa dextran labeled with fluorescein isothiocyanate (FITC) [4KDa-FITC]. One hour after the 4KDa-FITC gavage, mice were euthanized, blood was collected, and FITC signal was measured in serum. […] The magnitude of 4KDa-FITC dextran translocation observed for SG-11 was similar to the positive control of Gly2-GLP2. Results are shown in FIG. 3, and are presented as mean±SEM. The graph in FIG. 3 represents data pooled from 3 independent experiments, each using 10 mice (n=30).
SG-11 was also assessed for its effects on the levels of lipopolysaccharide (LPS) binding protein (LBP) in the blood of the DSS animal with and without SG-11 administration. LBP, which has been linked to clinical disease activity in subjects with inflammatory bowel disease, was also measured by […] in the serum of mice tested in the DSS model described in this Example. […] Results are shown in FIG. 4, and are presented as mean±SEM. The graph in FIG. 4 represents data pooled from 3 independent experiments (n=30; each experiment using 10 mice).
Body weight was measured daily from mice included in the DSS model described in this Example. Percent change from starting weight on day 0 was determined for each mouse. […]
Colon length was measured in mice included in the DSS model described above. […]

[4] = system: C57BL/6 mice treated with DSS; assay: therapeutic DSS model of inflammatory bowel disease, treatment after 7 days DSS (Examples 5, 13B); format: in vivo
Protocol: Following a 7-day acclimation period, the mice were provided with drinking water containing 2.5% DSS for 7 days. Fresh 2.5% DSS water was prepared every 2 days during the 7 day DSS administration. For this therapeutic DSS study, SG-11 used to treat the animals was fused at its N-terminus to a FLAG Tag (DYKDDDDK; SEQ ID NO:32).
On day 7, normal drinking water was restored and i.p. treatments of 50 nmole/kg of SG-11 ([…]) or Gly2-GLP2 (0.2 mg/kg) were initiated. Treatments were administered twice a day (b.i.d.), with a morning and evening dose (every 8 and 16 hours) for six days.
Body weight was measured daily during the morning treatment. The colon tissue was then harvested and length was measured in centimeters and the tissue was weighed. Fecal material was flushed from the colon and residual PBS removed by gently running the colon tissue through a pair of forceps. The colon tissue was then weighed and colon weight to length ratio in mg/mm was determined. Following weight measurements proximal and distal colon tissue was banked for RNA and protein analysis and the remaining tissues was fixed in 10% neutral buffered formalin for histopathology. Statistical analysis was performed by a one-way ANOVA compared to DSS+vehicle for serum 4KDa-FITC translocation, scrum LBP concentrations, colon length, and colon weight to length ratio, while a two-way ANOVA was performed for analysis of body weight. In all analysis, a Fisher's LSD test for multiple comparisons was used. Graphs represent data pooled from two experiments, and are plotted as mean±SEM.
Histopathology analysis was performed on proximal and distal colon tissues from the therapeutic DSS model described above. Proximal (FIG. 13A) and distal (FIG. 13B) colon scores (range 0-4) are presented as well as the total score for the colon which represents the sum of proximal and distal colon scores (Range 0-8) (FIG. 13C). LMA=Loss of mucosal architecture, Edema=Edema, INF=Inflammation, TMI=Transmural inflammation, MH=Mucosal hyperplasia, DYS=Dysplasia. Graphs represent data pooled from two independent experiments, and are plotted as mean±SEM. Statistical analysis was performed by a one-way ANOVA compared to DSS+vehicle followed by a Fisher's LSD test for multiple comparisons. […]
At the end of each DSS model study, mice were fasted for 4 hours and then orally gavaged with 600 mg/kg 4KDa dextran labeled with FITC [4KDa-FITC]. One hour after the 4KDa-FITC gavage, mice were euthanized, blood was collected, and FITC signal was measured in serum. […]
Upon completion of the OSS models above. LBP levels were measured as an inflammation centric readout of barrier function following the protocol detailed in Example 5. […] LPS binding protein (LBP) levels were measured in serum using a commercially available ELISA Kit (Enzo Lift Sciences).

[5] = mouse, in vivo, ip
Protocol: Eight-week old C57BL/6 mice were housed 5 animals per cage and given food and water ad libitum for 7 days. Following the 7-day acclimation period, treatments were initiated concurrently with addition of 2.5% DSS to the drinking water. […] The mice were treated with 2.5% DSS in their drinking water for 6 days. […] Fresh 2.5% DSS drinking water was prepared every 2 days.

## CN[C@@H]1C[C@H]2O[C@@](C)([C@@H]1OC)n1c3ccccc3c3c4c(c5c6ccccc6n2c5c31)C(=O)NC4 [staurosporine, reference compound]
[1]
  percent growth (epithelial cell wound healing): suppressing cell proliferation
[2]
  TEER: drastic decrease in TEER

## EGF: epidermal growth factor, positive control (NSDSECPLSHDGYCLHDGVCMYIEALDKYACNCVVGYIGERCQYRDLKWWELR; UniProt P01133 971-1023, looked up)
[1]
  percent growth (epithelial cell wound healing): increasing proliferation

## Gly2-GLP2 [reference compound]
[3]
  colon length: significant improvement in colon length
  colon weight to length ratio: significant improvement in colon weight to length ratios
[4]; Example 5
  histopathology: inflammation and transmural inflammation scores: no change
  histopathology: loss of mucosal architecture score: modest, but significant reduction
[4]; Example 5, 50 nmole/kg i.p. b.i.d. six days after 7 days DSS, FLAG-tagged SG-11
  serum LBP: no reduction in LBP
[4]; Example 13B, p<0.01
  colon weight to length ratio: did not

## fluorescently labeled bovine serum albumin: fluorescently labeled bovine serum albumin used for tracking studies
[5]
  time at which protein reached the colon: 6 h
